Laboratory results taken from patent US20190177440A1, “COMPOUND OR SALT THEREOF, ANTI-INFLAMMATORY AGENT, ANTI-CANCER AGENT AGAINST LUNG CANCER, METHOD OF PRODUCING COMPOUND OR SALTS THEREOF, METHOD OF TREATING INFLAMMATORY DISEASES AND METHOD OF TREATING LUNG CANCER” (TFK CO., LTD., priority 2016, published 2019).

Tests used:
TNF-α = TNF-α production in RAW264.7 cells stimulated with LPSp (Example 7); type: cell-based, mouse; settings: final 1 ng/mL to 10 μg/mL, then LPSp 100 ng/mL, FIG. 7
Experimental: The culture medium was added to mouse macrophage cells (RAW264.7, ATCC) to prepare solutions at concentrations of 4×10^5 cells/mL. The solutions were seeded in 96-well flat-bottomed plates in 100 μL portions, i.e., 4×10^4 cells/100 μL/well. After seeding, the cells were incubated at 37° C. in 5% CO2 for 2 hours until they adhered to the bottoms of the wells and extended. Next, 100 μL of the test solution was added to each well. After adding the test solution, the cells were incubated at 37° C. in a 5% CO2 for 24 hours. After the incubation, the culture supernatant of the wells was removed, 150 μl of the above-mentioned culture solution was newly added (hereinafter, this step is referred to as a “culture solution adding step”), and the wells were incubated at 37° C. in a 5% CO2 for 24 hours.
After incubation, 50 μl of culture supernatant from each well was collected, transferred to each well of new 96-well flat-bottom plates, and absorbance was measured using mouse TNF a assay kit (manufactured by Biolegend) and converted to TNF-α concentrations.
In this example, an experiment was carried out in the same manner as in Example 6 except for the following two points, and 50 μL of culture supernatant of each well was collected and TNF-α concentration was measured. That is, in this example, a total of five test solutions were used as the test solution, in which the concentration of the purified product was 20 μg/mL, 2 μg/mL, 200 ng/mL, 20 ng/mL, and 2 ng/mL. Since the five test solutions are diluted twice when added to the cells, the final concentrations of the purified products are 10 μg/mL, 1 μg/mL, 100 ng/mL, 10 ng/mL, and 1 ng/mL, respectively. In this example, in the culture medium adding step in Example 5, 150 μL of the culture medium containing LPSp at a final concentration of 100 ng/mL was added instead of 150 μL of the culture medium.

NF-κB = assay: Nuclear NF-κB level in RAW264.7 cells stimulated with LPSp (Example 5); type: cell-based, mouse; settings: final 1, 100 and 10,000 ng/mL, then LPSp 100 ng/mL, FIG. 5
Experimental: The culture medium was added to mouse macrophage cells (RAW264.7, ATCC) to prepare solutions at concentrations of 1.067×10^6 cells/mL. The solutions were seeded in 6 well plates in 3 mL portions, i.e., 3.2×10^6 cells/3 mL/well. After seeding, the test solution was incubated at 37° C. in a 5% CO2 for 2 hours, and 30 μL of the test solution was added to each well. After adding the test solution, the test solution was incubated at 37° C. in a 5% CO2 for 24 hours. The culture supernatant of each of the wells was then collected in a 15 mL tube. Then, 1 mL of the fresh culture solution was added to each of the wells, and after spreading over the entire well, the operation of collecting the culture solution into the 15 mL tube was repeated twice. Thereafter, the culture solution collected in the 15 mL tube was centrifuged at 1,000 rpm for 3 minutes, the supernatant was removed, and 3 mL of a new culture solution at 37° C. was added to suspend the culture solution, and centrifuged again under the same conditions. After centrifugation, the supernatant was removed, and 2 mL of the above-mentioned culture solution at 37° C. was added to the precipitate and suspended. Then, 2 mL of the suspension was added to each well to which 1 mL of a new culture medium had been added in advance. Thereafter, 30 μL of a new culture medium was added (hereinafter, this step is referred to as a “culture medium addition step”). After incubation at 37° C. in a 5% CO2 for 30 minutes, the culture supernatants of the wells were collected in 15-mL tubes, centrifuged at 1,000 rpm for 3 minutes, and the supernatants were removed by an aspirator. In addition, to the wells of the 6-well plate from which the culture supernatant was removed, 3 mL of cooled PBS (Phosphate buffered saline)/Phosphatase Inhibitors solution was added, the cells were removed by pipetting, and the cell suspension was added to the 15-mL tubes. The 15 mL tube was centrifuged at 1,000 rpm for 3 minutes, the supernatant was removed by an aspirator, and 0.5 mL of the cooled PB S/Phosphatase Inhibitors solution was added to the 15 mL tube and suspended to prepare a cell suspension. Nucleoproteins were extracted from the cell suspensions using Nuclear Extract kit (manufactured by Active Motif).
The amount of NF-κB in the nucleoprotein was confirmed by measuring the absorbance using the Trans AM NF KB p65 kit (manufactured by Active Motif).
In this example, an experiment was conducted in the same manner as in Example 4 except for the following two points, and the amount of NF-κB in the nucleoprotein was confirmed by measuring the absorbance. That is, in this example, three types of test solutions were used as the test solution, in which the concentration of the purified product was 100 ng/mL, 10,000 ng/mL, and 1,000,000 ng/mL. […]

Row | Structure (SMILES) | TNF-α concentration in culture supernatant (TNF-α) | amount of NF-κB in the nucleoprotein (absorbance) (NF-κB)
1 | CCCCCC/C=C/CCCCCC(=O)OC(CCCCCCCCCCC)CC(=O)NC1C(OCC2OC(OP(=O)(O)O)C(NC(=O)CC(=O)CCCCCCCCCCC)C(OC(=O)CC(O)CCCCCCC)C2O)OC(COC2(C(=O)O)CC(OC3(C(=O)O)CC(OC4OC(C(=O)O)C(OC5OC(CO)C(O)C(O)C5O)C(O)C4O)C(O)C(C(O)CO)O3)C(OC3OC(CO)C(O)C(O)C3O)C(C(O)CO)O2)C(OP(=O)(O)O)C1OC(=O)CC(O)CCCCCCC (centres unmarked) [Formula (A2)] | Equivalent results were obtained | Equivalent results were obtained
2 | CCCCCC/C=C/CCCCCC(=O)OC(CCCCCCCCCCC)CC(=O)NC1C(OCC2OC(OP(=O)(O)O)C(NC(=O)CC(=O)CCCCCCCCCCC)C(OC(=O)CC(O)CCCCCCC)C2O)OC(COC2(C(=O)O)CC(OC3(C(=O)O)CC(OC4OC(C(=O)O)C(OC5OC(CO)C(O)C(O)C5O)C(O)C4O)C(O)C(C(O)CO)O3)C(OC3OC(COP(=O)(O)O)C(OC4OC(CO)C(O)C(O)C4O)C(O)C3O)C(C(O)CO)O2)C(OP(=O)(O)O)C1OC(=O)CC(O)CCCCCCC (centres unmarked) [Formula (A1)] | Equivalent results were obtained | Equivalent results were obtained
3 | CCCCCC/C=C/CCCCCC(=O)OC(CCCCCCCCCCC)CC(=O)NC1C(OCC2OC(OP(=O)(O)O)C(NC(=O)CC(=O)CCCCCCCCCCC)C(OC(=O)CC(O)CCCCCCC)C2O)OC(COC2(C(=O)O)CC(OC3(C(=O)O)CC(O)C(OC4OC(C(=O)O)C(OC5OC(CO)C(O)C(O)C5O)C(O)C4O)C(C(O)CO)O3)C(OC3OC(CO)C(O)C(O)C3O)C(C(O)CO)O2)C(OP(=O)(O)O)C1OC(=O)CC(O)CCCCCCC (centres unmarked) [Formula (B2)] | Equivalent results were obtained | Equivalent results were obtained
4 | CCCCCC/C=C/CCCCCC(=O)OC(CCCCCCCCCCC)CC(=O)NC1C(OCC2OC(OP(=O)(O)O)C(NC(=O)CC(=O)CCCCCCCCCCC)C(OC(=O)CC(O)CCCCCCC)C2O)OC(COC2(C(=O)O)CC(OC3(C(=O)O)CC(O)C(OC4OC(C(=O)O)C(OC5OC(CO)C(O)C(O)C5O)C(O)C4O)C(C(O)CO)O3)C(OC3OC(COP(=O)(O)O)C(OC4OC(CO)C(O)C(O)C4O)C(O)C3O)C(C(O)CO)O2)C(OP(=O)(O)O)C1OC(=O)CC(O)CCCCCCC (centres unmarked) [Formula (B1)] | Equivalent results were obtained | Equivalent results were obtained
